Patent publication US20140221210A1, “ACYL-HOMOSERINE LACTONE DERIVATIVES FOR IMPROVING PLANT YIELD” (priority 2011, published 2014)

Legend:
[1] = tested on: Glomus intraradices / Medicago truncatula plantlets; assay: In vitro phosphate (33P) transport to host plant by mycorrhizal fungi; assay type: in vivo; conditions: 96 hours after addition of 33P, average of 4 replicates
Description: One-week-old Medicago truncatula plantlets were transferred in the AM-P in vitro culture systems (details on AM-P systems see: H. Dupré Boulois et al., 2006). The roots were placed in the root compartment (RC) on the surface of the solid MSR medium (Declerck et al., 2003) lacking vitamins and sucrose. The RC was filled with 25 ml and the hyphal compartment (HC) with 20 ml of solid MSR medium, lacking sucrose, vitamins and solidified with 3 g l^−1 Phytagel.
Roots of M. truncatula plantlets were subsequently inoculated with the spores (±100) of Glomus intraradices. The bi-compartmented Petri plates of the AM-P in vitro culture systems were then sealed using Parafilm (Pechiney, Menasha, Wis., USA) and wrapped in black plastic bags to maintain roots and the G. intraradices in the dark. The AM-P in vitro culture systems were subsequently incubated in a controlled environment chamber (20° C., 16 h photoperiod). The AMP in vitro culture systems were supplied weekly with 5 ml of MSR medium up to 2 weeks before radio-isotopic labelling (10 weeks after inoculation).
Three weeks after inoculation, AM fungal mycelium started to contact the roots and to develop in the entire volume of the RCs. Between week 5 and 7, the mycelium crossed the partition wall between the RCs and HCs and started to develop in the HCs. The roots that crossed the plastic barrier were trimmed to leave the HC void of roots. Eight weeks after inoculation, the medium contained in the HCs was removed and then replaced by fresh MSR medium, lacking sucrose, vitamins and solidified with 3 g l^−1 Phytagel. In this medium, the active ingredient at the desired concentrations (in 0.1% acetone) was also added. The mycelium started immediately to re-grow into the fresh medium containing the active ingredient. At time of labeling, the mycelium in the HCs was 2 weeks-old.
Ten weeks after beginning of the experiment (i.e. 2 weeks after initiation of hyphal development in the HCs containing the active ingredient), filter-sterilized (Acrodisc® Syringe Filters, PALL Corporation, Ann Arbor, Mich., USA) phosphorus (^33P) was added in the HCs (489520+/−12080 CPM per systems). The source of ^33P was orthophosphate in dilute hydrochloric acid (<0.1 M) supplied by Amersham Pharmacia Biotech (Buckinghamshire, UK). A control treatment was included. Four replicates were considered per treatment.
At the end of the experiment (i.e. 96 hours after the addition of ^33P), the shoots of M. truncatula were collected by cutting the shoots at the level of the solidified MSR medium contained in the RCs. The roots were then removed from the solidified MSR medium and cleaned-free from the remaining gel and extraradical mycelium. Root and shoots were oven dried (60° until constant weight) and weighted. […]

[2] = tested on: maize roots inoculated with arbuscular mycorrhizal fungi; assay: Greenhouse experiment on maize under low phosphate conditions (mycorrhization of roots); assay type: in vivo; conditions: maize seed treatment 0.1 mg/ha, AMF inoculum, low phosphate (20 μM), 6 weeks greenhouse, trypan blue staining
Description: Test is performed in the greenhouse. 5 maize seeds per treatment were sown in 500 ml rose pots (7×7×18 cm) containing a mix of sand and perlite (1:1). 3 replicates were made. The active ingredient was solved in a DMSO and seed treatment was performed with lab equipment. To inoculate with arbuscular mycorrhizal fungi, 8 ml inoculum (AMykor GmbH; Germany) were mixed with 1 l of the sand-perlite mixture. Seeds were covered by 3 cm of LECA (light expanded clay aggregate). Pots were incubated in the greenhouse for 6 weeks at 21.5° C./14° C. (day/night) and 80% relative humidity. Once a week plants were watered with nutrient solution (half concentrated Hoagland solution (Hoagland and Arnon, 1950)) containing only a low concentration of phosphate (20 μM). Assessment consisted of mycorrhization of roots. Mycorrhization was evaluated after trypan blue staining by microscopy. Controls are performed in the same conditions in the absence of the active ingredient.

[3] = tested on: Soybean seeds; assay: Germination test on soybean seeds; assay type: in vivo; conditions: agar plates, 7.5° C. dark, 5 replicates of 20 seeds
Description: (§1) The test is performed under lab conditions. Soybean and maize seeds, treated with the active ingredient solved in DMSO and diluted with water to the desired dosages, are placed on sterile agar plates (0.5% agar in water). Covered plates are incubated at 7.5° C. and 10° C. respectively in the dark. Wheat seeds, treated with the active ingredient, solved in DMSO and diluted with water to the desired dosages, are placed on sterile agar plates (1% agar in water). Covered plates are incubated at 7.5° C. in the dark. Controls are performed in the same conditions in the absence of the active ingredient. Assessment consisted of counting germinated seeds per plate at different time points.

[4] = tested on: Soybean plants; assay: Greenhouse experiment on soybean inoculated with Bradyrhizobium japonicum; assay type: in vivo
Description: Test is performed under greenhouse conditions. The experiment was conducted at a constant air temperature of 25° C. (day) and 20° C. (night) and 65% relative humidity. Plants were regularly watered with ½ strength Nitrogen free Hoagland's solution (Hoagland and Arnon, 1950) as needed.
Initial culture of Bradyrhizobium japonicum was prepared by inoculating single cell colonies from petri plates in 200 mL Yeast Extract Mannithol (YEM) broth (pH 6.8) and incubated at 28° C. and shaken at 150 rpm until an OD600 of 0.2-0.3 is achieved (2-3 days). Absorbance (A600 nm) of the bacterial cultures was determined using a spectrophotometer. The culture was diluted to an OD600 of 0.08 and 1 mL of this culture was used for inoculation onto seeds of all treatments.
Soybean seeds were surface sterilized in 2% sodium hypochlorite for 3 min and then rinsed several times with distilled water (Bhuvaneswari et al. 1980). Seeds were directly sown in pots (130 mm diameter) containing a mixture of sand and turface (2:1, v/v). Five soybean seeds were put in each. Before sowing seeds were soaked in solution containing the active ingredient at the desired concentration for at least two hours. Bradyrhizobium japonicum inoculant prepared as described above was inoculated onto soybean seeds by pipetting 1 mL of diluted culture onto each seed. The seeds were covered gently with the potting mixture, kept on the growth bench. After monitoring emergence, seedlings were thinned to one seedling per pot.
The plants were allowed to grow for 45 days after seeding and were then harvested for final data collection. Data were collected on the following variables: • 1. SPAD meter readings (leaf greenness measurements (chlorophyll content); SPAD-502 Chlorophyll Meter (Konica Minolta Sensing Inc., Japan) • 2. Number of nodules per plant • 3. Nodule dry weight

[5] = tested on: AMF spores; assay: Arbuscular mycorrhizal fungi (AMF) spore germination experiment; assay type: cell-based; conditions: 10^−8M in M-medium, 26.5° C. dark, average of 3 replicates
Description: Test is performed under lab conditions. The active ingredient was solved in a solvent (acetone) and added to warm culture medium (M-medium; Bécard et Fortin, 1988) to obtain a final concentration of 10^−8M. After filling the culture medium in 24-well plates, AMF spores were deposited on the surface of culture medium. Plates were incubated at 26.5° C. in the dark. Assessment consisted of counting of germinated spores 3 and 4 days after application (daa).

[6] = tested on: Maize plants; assay: Greenhouse experiment on maize (SPAD chlorophyll reading); assay type: in vivo; conditions: seeds soaked, 0.1 mg/ha, 45 days after seeding, average of 4 replicates
Description: Test is performed under greenhouse conditions. Plants were grown in pots on a growth bench in the greenhouse at constant air temperature of 25° C. (day) and 20° C. (night) and 65% relative humidity. Plants were regularly watered with ½ strength Hoagland's solution containing nitrogen (Hoagland and Arnon, 1950) as needed. Maize seeds were carefully surface sterilized in 2% sodium hypochlorite for 3 min. followed by several rinsing with sterile distilled water (Bhuvaneswari et al. 1980). Seeds were directly sown in pots ([…]) containing a mixture of sand and turface (2:1, v/v) (2.5 L in each pot. Five seeds were put in each pot. The seeds were covered gently with the potting mixture and kept on the growth bench. After counting emergence, seedlings were thinned to one seedling per pot. Before sowing, seeds were soaked in solution containing the active ingredient at the desired concentration for at least two hours. The plants were allowed to grow for 45 days after seeding and were then harvested for final data collection. Data were collected on the SPAD meter readings (leaf greenness measurements (chlorophyll content); SPAD-502 Chlorophyll Meter (Konica Minolta Sensing Inc., Japan)

[7] = tested on: Spring wheat; assay: Spring wheat field trial (2010); assay type: in vivo; conditions: seed treatment of spring wheat, result in words
Description: Maize and wheat field trials were conducted in order to evaluate several assessments including the weight of plant (leaf+roots), the formation of mycorrhiza, and yield parameters like the weight of grains per plot in tons per ha and the 1000 kernel weight. In addition to the tested compounds, a basic treatment of fungicides was also applied on the seeds. The tested active ingredients were pre-diluted in DMSO and applied on seeds in tank mix with fungicides. Spring wheat: Germany (Monheim), soil description: sandy loam, phosphor 11 mg/100 g soil, potassium 14 mg/100 g soil, magnesium 8 mg/100 g soil, organic matter 1.2%, pH 6.4. Sowing date: 2010-04-01 In both crops no phosphate or potassium fertilizer were applied. Compound A1: 0.1 and 1 milligrams active ingredient per hectare Base: Fungicide: Fluoxastrobin+Prothioconazole+Tebuconazole FS 80/Dosage: 5.6+5.6+0.747 grams active ingredient per 100 kg seeds. The following yield parameters were assessed: tons per hectare (for wheat only), TKW=1000 kernel weight. Mycorrhization of roots of spring wheat plants was assessed by trypan blue staining followed by microscopy.

[8] = tested on: Wheat seeds; assay: Germination test on wheat seeds; assay type: in vivo; conditions: agar plates, 7.5° C. dark, 5 replicates of 20 seeds
Description: as §1

[9] = tested on: Maize seeds; assay: Germination test on maize seeds; assay type: in vivo; conditions: agar plates, 10° C. dark, 5 replicates of 20 seeds
Description: as §1

[10] = tested on: Arabidopsis root; conditions: literature report (Planta, 2008); cited from earlier work
[11] = soybean, seeds soaked, 0.1 mg/ha, 45 days after seeding, average of 4 replicates

Structure (SMILES) | ^33P counting root ([1]; 10^−6 M in hyphal compartment) | ^33P counting shoot ([1]; 10^−6 M in hyphal compartment) | ^33P counting root ([1]; 10^−7 M in hyphal compartment) | ^33P counting shoot ([1]; 10^−7 M in hyphal compartment) | Mycorrhization [2] | Soybean Germination rate 7 daa ([3]; seed treatment 0.1 mg/ha) | Soybean Germination rate 7 daa ([3]; seed treatment 1 mg/ha) | biomass (root and shoot) ([4]; soybean seeds treated, greenhouse, comparatively to the control, figures not given) | Nodule weight (dry) [4, 11] | Number of nodules [4, 11] | SPAD [4, 11] | Germination rate 3 daa ([5]; 3 days after application) | Germination rate 4 daa ([5]; 4 days after application) | SPAD [6] | yield [7] | Wheat Germination rate 3 daa ([8]; seed treatment 0.1 mg/ha) | Wheat Germination rate 3 daa ([8]; seed treatment 1 mg/ha) | Maize Germination rate 6 daa ([9]; seed treatment 0.1 mg/ha) | Maize Germination rate 6 daa ([9]; seed treatment 1 mg/ha) | Arabidopsis root length [10]
CCCCCC(=O)CC(=O)NC1CCOC1=O (centres unmarked) [Compound A1] | 121485.7 | 61277.6 | 111374.4 | 70473.9 | 4.3% | 77% | 84% | increase of biomass (root and shoot) | 0.180 g | 84 | 34 | 58% | 78% | 42 | significative yield increase | 52% | 69% | 95% | 94% | –
CCCCCC(=O)NC1CCOC1=O (centres unmarked) [N-hexanoyl-d1-homoserine-lactone] | – | – | – | – | – | – | – | – | – | – | – | – | – | – | – | – | – | – | – | small increase
